Test results: patent US9475840B2, “Protease-resistant compounds useful as shuttles through the blood-brain barrier and shuttle-cargo constructs” (UNIVERSITAT DE BARCELONA, priority 2012, dated 2016)
Where two headings read alike, the source gives them in different places. Where a SMILES comes first, the peptide text is derived from it. [ ]: non-standard residue; d: D form. Quantum Dot = not defined here

How the values were obtained:
[1] = system: co-culture of brain endothelial cells and astrocytes; assay: Transport across the BBB, in vitro co-culture cell assay (transwell); settings: — = not detected in acceptor compartment; for Papp (×10^6) cm/s: apparent permeability, 2 h at 37° C., Ringer-HEPES buffer pH 7.4, triplicate, 50 μM or 0.75 nM (particles); for Transport (%) (2 h): percentage of transport after a 2 hours assay
Description: (§1) The evaluation method chosen to test the compounds of formula (I) and (II) of the invention was a cell-based assay consisting of a co-culture of brain endothelial cells and astrocytes, which allows to evaluate or to predict the transport of compounds through the BBB. […] Under these conditions endothelial cells are able to reach the confluence mimicking the BBB. […] Is commonly used model for permeation studies and toxicity of compounds across the BBB.
(§2) The co-culture assay was used to determine the capacity of the constructs cargo-shuttle to cross the BBB. […] The permeability tests were performed in Ringer-HEPES buffer at pH 7.4. The compound of interest was dissolved in the buffer to the desired concentration.
(§3) Once the endothelial cells were confluent on the filters (transwells) these were washed with Ringer-HEPES buffer. The acceptor well was filled with 800 μL of Ringer-HEPES buffer and the donor well with 200 μL of the solution of the compound to be studied. The system was incubated at 37° C. and 5% CO2 for 2 h. After that time the content of the acceptor and donor compartments were analyzed by HPLC, ICP or fluorescence measurements (depending on cargo anchored to the shuttle). Transport was also confirmed by mass spectrometry MALDI-TOF.
(§4) The apparent permeability was calculated using the following equation: Papp=(dQ/dt)*(1/A)*(1/C0)(cm/s)
(§5) Where (dQ/dt) is the amount of compound present in the compartment acceptor function of time (nmol/s). A is the area of the filter (cm2) and C0 is the initial concentration of the compound applied in the donor compartment (nmol/mL).
(§6) The values of permeability equal to or higher than 1×10-6 cm/s are considered exceptionally good, and values equal to or higher than 0.1×10-6 cm/s are considered good.

[2] = Stability of the shuttle in human serum; settings: for half-life: human, serum
Protocol: At a range of times, 50 μL aliquots were collected to which methanol was added in order to precipitate the serum proteins. The samples were centrifuged, filtered and analysed by HPLC to determine the degree of degradation of the BBB-shuttle

[3] = Transport across the BBB, in vitro co-culture cell assay (transwell); settings: pH 7.4
Description: as §1, §2, §3, §4, §5, §6

[4] = system: co-culture of brain endothelial cells and astrocytes
Description: as §1, §2, §3, §4, §5, §6

Compound	Papp (×10^6) cm/s [1]	Papp [3] [×10⁻⁶ cm/s]	Transport (%) (2 h) [1]	also measured
Rhodamine b-L-Lys(Antibody)-D-Pro-D-Trp-D-Val-D-Pro-D-Ser-D-Trp-D-Met-D-Pro-D-Pro-D-Arg-D-His-D-Thr-NH2 [Example 20]	0.36 ± 019 (×10^6) cm/s	–	–	–
CSCC[C@@H](NC(=O)[C@@H](Cc1c[nH]c2ccccc12)NC(=O)[C@@H](CO)NC(=O)[C@H]1CCCN1C(=O)[C@H](NC(=O)[C@@H](Cc1c[nH]c2ccccc12)NC(=O)[C@H]1CCCN1)C(C)C)C(=O)N1CCC[C@@H]1C(=O)N1CCC[C@@H]1C(=O)N[C@H](CCCNC(=N)N)C(=O)N[C@H](Cc1c[nH]cn1)C(=O)N[C@@H](C(N)=O)[C@H](C)O [Example 1, H-D-Pro-D-Trp-D-Val-D-Pro-D-Ser-D-Trp-D-Met-D-Pro-D-Pro-D-Arg-D-His-D-Thr-NH2] (HELM PEPTIDE1{[dP].[dW].[dV].[dP].[dS].[dW].[dM].[dP].[dP].[dR].[dH].[dT].[am]}$$$$V2.0)	–	21.4 ± 2.1	25.1 ± 3	half-life [2]: > 24 h
Rhodamine b-L-Lys(Antibody)-D-Pro-D-Trp-D-Val-D-Pro-D-Ser-D-Trp-D-Met-D-Pro-D-Pro-D-Arg-D-His-D-Thr-NH2 [Example 18]	0.18 ± 0.05 (×10^6) cm/s	–	–	–
H-Gly-D-Pro-D-Trp-D-Val-D-Pro-D-Ser-D-Trp-D-Met-D-Pro-D-Pro-D-Arg-D-His-D-Thr-NH2 [Example 2]	–	–	–	Transport (%) (2 h) [4]: 22.3 ± 2.6%; Papp (×10^6) cm/s ([4]; pH 7.4): 19.4 ± 1.8 (×10^6) cm/s
Rhodamine b-L-Lys(Antibody)-D-Pro-D-Trp-D-Val-D-Pro-D-Ser-D-Trp-D-Met-D-Pro-D-Pro-D-Arg-D-His-D-Thr-NH2 [Example 17]	0.16 ± 0.10 (×10^6) cm/s	–	–	–
H-THRPPMWSPVWP-NH2 [compound 1, H-L-Thr-L-His-L-Arg-L-Pro-L-Pro-L-Met-L-Trp-L-Ser-L-Pro-L-Val-L-Trp-L-Pro-NH2, reference compound]	–	12.5 ± 5.2	14.9 ± 2.5	Degradation / half-life time in human serum (in words) ([2]; 150 μM, 37° C., 90% human serum): rapidly degraded; half-life [2]: < 1 h
Antibody Avastin partially reduced and trapped with Ellman's reagent: bevacizumab (Avastin) antibody cargo, partially reduced and trapped with Ellman's reagent	0.054 ± 0.005 (×10^6) cm/s	–	0.064 ± 0.006	–
nanoparticle superparamagnetic iron oxide (SPION)-Gly-D-Pro-D-Trp-D-Val-D-Pro-D-Ser-D-Trp-D-Met-D-Pro-D-Pro-D-Arg-D-His-D-Thr-NH2 ({SPION}-G[dP][dW][dV][dP][dS][dW][dM][dP][dP][dR][dH][dT]-NH2) [Example 11]	0.19 ± 0.07 (×10^6) cm/s	–	0.22 ± 0.05	–
CSCC[C@@H](NC(=O)[C@@H](Cc1c[nH]c2ccccc12)NC(=O)[C@@H](CO)NC(=O)[C@H]1CCCN1C(=O)[C@H](NC(=O)[C@@H](Cc1c[nH]c2ccccc12)NC(=O)[C@H]1CCCN1C(=O)[C@@H](N)Cc1ccc(O)c(O)c1)C(C)C)C(=O)N1CCC[C@@H]1C(=O)N1CCC[C@@H]1C(=O)N[C@H](CCCNC(=N)N)C(=O)N[C@H](Cc1c[nH]cn1)C(=O)N[C@@H](C(N)=O)[C@H](C)O [Example 8, L-dopa-D-Pro-D-Trp-D-Val-D-Pro-D-Ser-D-Trp-D-Met-D-Pro-D-Pro-D-Arg-D-His-D-Thr-NH2] (HELM PEPTIDE1{[N[C@@H](Cc1ccc(O)c(O)c1)C(=O)[*:2]].[dP].[dW].[dV].[dP].[dS].[dW].[dM].[dP].[dP].[dR].[dH].[dT].[am]}$$$$V2.0)	–	8.46 ± 2.1	10.1 ± 1.3	–
Quantum Dot-Gly-D-Pro-D-Trp-D-Val-D-Pro-D-Ser-D-Trp-D-Met-D-Pro-D-Pro-D-Arg-D-His-D-Thr-NH2 ({Quantum Dot}-G[dP][dW][dV][dP][dS][dW][dM][dP][dP][dR][dH][dT]-NH2; reading uncertain; also: quantum dot nanoparticle conjugate, printed as Quantum Dot-Gly-D-Pro-D-Trp-D-Val-D-Pro-D-Ser-D-Trp-D-Met-D-Pro-D-Pro-D-Arg-D-His-D-Thr-NH2) [Example 10]	0.27 ± 0.03 (×10^6) cm/s	–	0.31 ± 0.02	–
CSCC[C@@H](NC(=O)[C@@H](Cc1c[nH]c2ccccc12)NC(=O)[C@@H](CO)NC(=O)[C@H]1CCCN1C(=O)[C@H](NC(=O)[C@@H](Cc1c[nH]c2ccccc12)NC(=O)[C@H]1CCCN1C(=O)[C@@H](CCCCN)NC(=O)[C@@H](CCCCN)NC(=O)[C@@H](CC(C)C)NC(=O)[C@H](NC(=O)[C@@H](Cc1ccc2ccccc2c1)NC(=O)[C@@H](Cc1ccccc1)N(C)C(=O)[C@@H](C)N)C(C)C)C(C)C)C(=O)N1CCC[C@@H]1C(=O)N1CCC[C@@H]1C(=O)N[C@H](CCCNC(=N)N)C(=O)N[C@H](Cc1c[nH]cn1)C(=O)N[C@@H](C(N)=O)[C@H](C)O [Example 12, H-D-Ala-D-NMePhe-D-Nal(2)-D-Val-D-Leu-D-Lys-D-Lys-D-Pro-D-Trp-D-Val-D-Pro-D-Ser-D-Trp-D-Met-D-Pro-D-Pro-D-Arg-D-His-D-Thr-NH2] (HELM PEPTIDE1{[dA].[CN([C@H](Cc1ccccc1)C(=O)[*:2])[*:1]].[O=C([C@@H](Cc1ccc2ccccc2c1)N[*:1])[*:2]].[dV].[dL].[dK].[dK].[dP].[dW].[dV].[dP].[dS].[dW].[dM].[dP].[dP].[dR].[dH].[dT].[am]}$$$$V2.0)	–	0.14 ± 0.01	0.2 ± 0.04	–
CSCC[C@@H](NC(=O)[C@H]1CCCN1C(=O)[C@H]1CCCN1C(=O)[C@@H](CCCNC(=N)N)NC(=O)[C@@H](Cc1c[nH]cn1)NC(=O)[C@H](N)[C@H](C)O)C(=O)N[C@H](Cc1c[nH]c2ccccc12)C(=O)N[C@H](CO)C(=O)N1CCC[C@@H]1C(=O)N[C@@H](C(=O)N[C@H](Cc1c[nH]c2ccccc12)C(=O)N1CCC[C@@H]1C(N)=O)C(C)C [compound 2, H-D-Thr-D-His-D-Arg-D-Pro-D-Pro-D-Met-D-Trp-D-Ser-D-Pro-D-Val-D-Trp-D-Pro-NH2, reference compound] (HELM PEPTIDE1{[dT].[dH].[dR].[dP].[dP].[dM].[dW].[dS].[dP].[dV].[dW].[dP].[am]}$$$$V2.0)	–	9.9 ± 1.6	11.7 ± 6.4	half-life [2]: > 24 h
CSCC[C@@H](NC(=O)[C@@H](Cc1c[nH]c2ccccc12)NC(=O)[C@@H](CO)NC(=O)[C@H]1CCCN1C(=O)[C@H](NC(=O)[C@@H](Cc1c[nH]c2ccccc12)NC(=O)[C@H]1CCCN1C(=O)c1ccc2c(c1)C(=O)OC21c2ccc(O)cc2Oc2cc(O)ccc21)C(C)C)C(=O)N1CCC[C@@H]1C(=O)N1CCC[C@@H]1C(=O)N[C@H](CCCNC(=N)N)C(=O)N[C@H](Cc1c[nH]cn1)C(=O)N[C@@H](C(N)=O)[C@H](C)O [Example 9, 5(6)-Carboxyfluorescein-D-Pro-D-Trp-D-Val-D-Pro-D-Ser-D-Trp-D-Met-D-Pro-D-Pro-D-Arg-D-His-D-Thr-NH2] (HELM PEPTIDE1{[O=C1OC2(c3ccc(O)cc3Oc3cc(O)ccc32)c2ccc(C(=O)[*:2])cc21].[dP].[dW].[dV].[dP].[dS].[dW].[dM].[dP].[dP].[dR].[dH].[dT].[am]}$$$$V2.0)	–	16.2 ± 1.3	17.1 ± 2.6	–
